Values after ≈ are worked out from the molar mass of the structure shown. Like-named read-outs stand apart in the source and are kept apart here. Blank lines part the entries; values can stand above or below the compound they belong to.
Assays:
Solubility test = format: physicochemical; settings: for solubility: aqueous buffer, thermodynamic from solid
Method: The solubility was measured for Examples 7, 10, 20, 23, 24, and 30 to 34, Comparative Example 1, and Comparative Example 2. The test compound was added to 10 mmol/L glycine buffer (pH 2.0) and 10 mmol/L citrate buffer (pH 3.0), and the mixture was stored in a thermostatic chamber at 5° C. After standing overnight, the mixture was filtered through a membrane filter, and the concentration of the filtrate was measured by HPLC.
The HPLC measurement conditions are as follows.
HPLC conditions • Column: Acquity UPLC BEH C18, 1.7 μm, 50×2.1 mm • Column temperature: 40° C. • Mobile phase: A: 0.1% trifluoroacetic acid-containing water • B: acetonitrile • A/B (min): 95/5 (0)→0/100 (3.5)→0/100 (4)→95/5 (4.01)→95/5 (5) • Flow rate: 0.8 mL/min • Detection: UV visible detector, measurement wavelength 254 nm • Injection volume: 5 μL or • Column: Acquity UPLC BEH C18, 1.7 μm, 50×2.1 mm • Column temperature: 40° C. • Mobile phase: A: 0.1% trifluoroacetic acid-containing water • B: acetonitrile • A/B (min): • 80/20 (0)→40/60 (3.0)→0/100 (3.5)→0/100 (4)→80/20 (4.01)→80/20 (5) • Flow rate: 0.8 mL/min • Detection: UV visible detector, measurement wavelength 254 nm • Injection volume: 2 μL or • Column: Acquity UPLC BEH C18, 1.7 μm, 50×2.1 mm • Column temperature: 40° C. • Mobile phase: A: 0.1% trifluoroacetic acid-containing water • B: acetonitrile • A/B (min): • 80/20 (0)→40/60 (3.0)→0/100 (3.5)→0/100 (4)→100/0 (4.01)→100/0 (5) • Flow rate: 0.8 mL/min • Detection: UV visible detector, measurement wavelength 254 nm • Injection volume: 3 μL

[1] = Pharmacokinetic study in mice; format: in vivo; settings: for BA: oral 10 mg/kg vs intravenous 1 mg/kg
Method: The test compound was administered to 7-week-old female BALE/c (BALB/cAnN CrlCrlj) mice intravenously (dosage: 1 mg/kg) in a 50% PEG solution (0.01 mol/L HCl) or orally (dosage: 10 mg/kg) in a 0.5% methylcellulose aqueous solution, and blood was collected at the following times: • Intravenous administration: 5 min, 15 min, 30 min, 1 hr, 2 hr, 4 hr, 6 hr, and 24 hr after administration • Oral administration: 15 min, 30 min, 1 hr, 2 hr, 4 hr, 6 hr, and 24 hr after administration
The collected blood was centrifuged at 3000 rpm×10 min using a refrigerated centrifuge set at 4° C., and the obtained plasma was measured by LC-MS. A calibration curve was prepared from the value (peak ratio) obtained by dividing the peak area of the test substance by the peak area of the internal standard substance in MS and the concentration of the plasma calibration curve sample. The concentration in the sample was calculated from the peak ratio and the calibration curve of each sample.

hDAT = hDAT (Homo sapiens (Human), UniProt Q01959); experiment: Dopamine receptor inhibitory activity evaluation (binding assay, CHO-S/hDAT membranes); settings: for Inhibitory effect on dopamine receptors (in words): off-target
Method: The binding evaluation assay was outsourced to Eurofins. Specifically, CHO—S/hDAT cells were homogenized in an incubation buffer consisting of 50 mmol/L Tris-HCl, pH 7.4, 100 mmol/L NaCl, 1 μmol/L Leupeptin, and 10 μmol/L PMSF. The membrane pellet obtained by centrifugation was resuspended in the incubation buffer to prepare a membrane preparation. The test compound (1-10 μmol/L DMSO solution), the membrane preparation, and 0.15 nmol/L […] were mixed and incubated at 4° C. for 180 minutes. The cell membrane-[^125I]RTI-55 complex was bound to a GF/B filter mat by vacuum filtration and washed with 50 mmol/L Tris-HCl, pH 7.4. The effect on the receptor was assessed by measuring radioactivity using a scintillation counter.

G-401 xenograft = experiment: Drug efficacy evaluation by intravenous administration using G-401 xenograft mice model; format: in vivo; settings: G-401 xenograft model
Method: G-401 cells (ATCC) were intradermally transplanted into 4-7-week-old BALB/cAnNCrj-nu/nu mice (CAnN.Cg-Foxnl/CrlCrlj, Jackson Laboratory Japan) at 5×10^5 cells/mouse. After confirming the engraftment of G-401 cells 10-40 days after transplantation, the test compound suspended in a solvent such as 10 mmol/L glycine buffer solution (pH 2.0) was administered via the tail vein at least once a week at a dose of 0.015-20 mg/kg. The tumor volume was measured over time from the start of administration, and the effect of tumor volume reduction by administration of the test compound was evaluated. The tumor volume can be calculated from the following equation using the minor axis and major axis of the tumor measured with an electronic caliper (Mitutoyo).
A control administration group administered with only a solvent such as 10 mmol/L glycine buffer solution (pH 2.0) and a test compound administration group were compared, and the antitumor effect was evaluated by calculating T/C from the following equation.

hSERT = hSERT (Homo sapiens (Human), UniProt P31645); experiment: Serotonin receptor inhibitory activity evaluation (binding assay, HEK293/hSERT membranes); settings: for Inhibitory effect on serotonin receptors (in words): off-target
Method: The binding evaluation assay was outsourced to Eurofins. Specifically, HEK293/hSERT cells were homogenized in a buffer consisting of 100 mmol/L NaCl, 1 μmol/L Leupeptin, 10 μmol/L PMSF, and 50 mmol/L Tris-HCl (pH7.4). The membrane pellet obtained by centrifugation was resuspended in an incubation buffer consisting of 50 mmol/L Tris-HCl (pH 7.4), 120 mmol/L NaCl, and 5 mmol/L KCl to prepare a membrane preparation. The test compound (1-10 μmol/L DMSO solution), the membrane preparation, and 0.4 nmol/L [^3H]Paroxetin were mixed and incubated at 25° C. for 60 minutes. The cell membrane-[^3H]Paroxetin complex was bound to a GF/B filter mat by vacuum filtration and washed with 50 mmol/L Tris-HCl (pH 7.4). The effect on the receptor was assessed by measuring radioactivity using a scintillation counter.

recombinant p300 = recombinant p300 (Homo sapiens (Human), UniProt Q09472); experiment: HAT activity inhibition experiment (SensoLyte HAT(p300) Assay Kit); format: biochemical; settings: recombinant p300, acetyl CoA, histone H3 peptide
Method: The HAT activity inhibitory ability of HAT inhibitors was evaluated using SensoLyte HAT(p300) Assay Kit (ANASPEC, AS-72172). Specifically, 7.5 μL of the compound of Examples […] diluted with assay buffer was added to 7.5 μL of recombinant p300 solution diluted 10 times with assay buffer, and the mixture was incubated at room temperature for 10 minutes. 7.5 μL of acetyl CoA solution diluted 10 times with assay buffer and 15 μL of histone H3 peptide diluted 10 times with assay buffer were added thereto, and the mixture was incubated at 37° C. for 30 minutes. 37.5 μL of Stop Solution was added to stop the reaction. 75 μL of p300 Developer solution diluted 50 times with assay buffer was added, and the mixture was incubated at room temperature for 30 minutes under light-shielded conditions. The fluorescence at 513 nm when irradiated with 389 nm excitation light was measured using a multiplate reader.

hSERT, sequence (P31645 whole entry): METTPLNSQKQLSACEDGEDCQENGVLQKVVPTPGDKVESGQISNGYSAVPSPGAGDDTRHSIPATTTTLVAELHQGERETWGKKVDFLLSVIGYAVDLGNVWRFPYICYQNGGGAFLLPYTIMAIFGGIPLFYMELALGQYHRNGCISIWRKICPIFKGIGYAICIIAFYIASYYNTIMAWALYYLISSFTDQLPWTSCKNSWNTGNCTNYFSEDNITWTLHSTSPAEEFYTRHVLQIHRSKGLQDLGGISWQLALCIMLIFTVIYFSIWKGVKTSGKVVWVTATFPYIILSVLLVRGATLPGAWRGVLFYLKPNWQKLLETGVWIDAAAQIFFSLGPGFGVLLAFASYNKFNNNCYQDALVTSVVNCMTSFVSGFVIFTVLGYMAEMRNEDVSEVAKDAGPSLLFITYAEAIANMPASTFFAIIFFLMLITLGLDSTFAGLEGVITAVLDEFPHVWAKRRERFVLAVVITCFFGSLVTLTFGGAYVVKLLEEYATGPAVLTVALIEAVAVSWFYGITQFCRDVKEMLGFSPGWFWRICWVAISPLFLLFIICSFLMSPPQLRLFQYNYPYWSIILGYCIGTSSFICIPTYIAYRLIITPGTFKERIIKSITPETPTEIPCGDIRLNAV
hDAT, sequence (Q01959 whole entry): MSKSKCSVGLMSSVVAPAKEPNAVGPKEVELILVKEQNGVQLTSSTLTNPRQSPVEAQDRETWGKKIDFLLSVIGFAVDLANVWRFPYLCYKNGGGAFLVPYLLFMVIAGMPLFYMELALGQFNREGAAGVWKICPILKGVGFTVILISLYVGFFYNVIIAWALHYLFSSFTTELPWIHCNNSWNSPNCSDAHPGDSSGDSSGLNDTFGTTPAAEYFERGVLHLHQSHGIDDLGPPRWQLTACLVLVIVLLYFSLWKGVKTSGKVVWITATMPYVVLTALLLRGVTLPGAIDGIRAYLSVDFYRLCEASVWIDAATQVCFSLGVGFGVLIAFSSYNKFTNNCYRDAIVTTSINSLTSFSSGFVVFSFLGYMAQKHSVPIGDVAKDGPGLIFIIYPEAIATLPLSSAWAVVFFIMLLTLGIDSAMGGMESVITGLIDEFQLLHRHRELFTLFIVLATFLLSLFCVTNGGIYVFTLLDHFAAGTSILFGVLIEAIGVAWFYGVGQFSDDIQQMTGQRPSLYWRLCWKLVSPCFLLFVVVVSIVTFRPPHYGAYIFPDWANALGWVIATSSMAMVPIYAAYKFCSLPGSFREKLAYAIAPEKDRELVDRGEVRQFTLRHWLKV
recombinant p300, sequence (Q09472 whole entry): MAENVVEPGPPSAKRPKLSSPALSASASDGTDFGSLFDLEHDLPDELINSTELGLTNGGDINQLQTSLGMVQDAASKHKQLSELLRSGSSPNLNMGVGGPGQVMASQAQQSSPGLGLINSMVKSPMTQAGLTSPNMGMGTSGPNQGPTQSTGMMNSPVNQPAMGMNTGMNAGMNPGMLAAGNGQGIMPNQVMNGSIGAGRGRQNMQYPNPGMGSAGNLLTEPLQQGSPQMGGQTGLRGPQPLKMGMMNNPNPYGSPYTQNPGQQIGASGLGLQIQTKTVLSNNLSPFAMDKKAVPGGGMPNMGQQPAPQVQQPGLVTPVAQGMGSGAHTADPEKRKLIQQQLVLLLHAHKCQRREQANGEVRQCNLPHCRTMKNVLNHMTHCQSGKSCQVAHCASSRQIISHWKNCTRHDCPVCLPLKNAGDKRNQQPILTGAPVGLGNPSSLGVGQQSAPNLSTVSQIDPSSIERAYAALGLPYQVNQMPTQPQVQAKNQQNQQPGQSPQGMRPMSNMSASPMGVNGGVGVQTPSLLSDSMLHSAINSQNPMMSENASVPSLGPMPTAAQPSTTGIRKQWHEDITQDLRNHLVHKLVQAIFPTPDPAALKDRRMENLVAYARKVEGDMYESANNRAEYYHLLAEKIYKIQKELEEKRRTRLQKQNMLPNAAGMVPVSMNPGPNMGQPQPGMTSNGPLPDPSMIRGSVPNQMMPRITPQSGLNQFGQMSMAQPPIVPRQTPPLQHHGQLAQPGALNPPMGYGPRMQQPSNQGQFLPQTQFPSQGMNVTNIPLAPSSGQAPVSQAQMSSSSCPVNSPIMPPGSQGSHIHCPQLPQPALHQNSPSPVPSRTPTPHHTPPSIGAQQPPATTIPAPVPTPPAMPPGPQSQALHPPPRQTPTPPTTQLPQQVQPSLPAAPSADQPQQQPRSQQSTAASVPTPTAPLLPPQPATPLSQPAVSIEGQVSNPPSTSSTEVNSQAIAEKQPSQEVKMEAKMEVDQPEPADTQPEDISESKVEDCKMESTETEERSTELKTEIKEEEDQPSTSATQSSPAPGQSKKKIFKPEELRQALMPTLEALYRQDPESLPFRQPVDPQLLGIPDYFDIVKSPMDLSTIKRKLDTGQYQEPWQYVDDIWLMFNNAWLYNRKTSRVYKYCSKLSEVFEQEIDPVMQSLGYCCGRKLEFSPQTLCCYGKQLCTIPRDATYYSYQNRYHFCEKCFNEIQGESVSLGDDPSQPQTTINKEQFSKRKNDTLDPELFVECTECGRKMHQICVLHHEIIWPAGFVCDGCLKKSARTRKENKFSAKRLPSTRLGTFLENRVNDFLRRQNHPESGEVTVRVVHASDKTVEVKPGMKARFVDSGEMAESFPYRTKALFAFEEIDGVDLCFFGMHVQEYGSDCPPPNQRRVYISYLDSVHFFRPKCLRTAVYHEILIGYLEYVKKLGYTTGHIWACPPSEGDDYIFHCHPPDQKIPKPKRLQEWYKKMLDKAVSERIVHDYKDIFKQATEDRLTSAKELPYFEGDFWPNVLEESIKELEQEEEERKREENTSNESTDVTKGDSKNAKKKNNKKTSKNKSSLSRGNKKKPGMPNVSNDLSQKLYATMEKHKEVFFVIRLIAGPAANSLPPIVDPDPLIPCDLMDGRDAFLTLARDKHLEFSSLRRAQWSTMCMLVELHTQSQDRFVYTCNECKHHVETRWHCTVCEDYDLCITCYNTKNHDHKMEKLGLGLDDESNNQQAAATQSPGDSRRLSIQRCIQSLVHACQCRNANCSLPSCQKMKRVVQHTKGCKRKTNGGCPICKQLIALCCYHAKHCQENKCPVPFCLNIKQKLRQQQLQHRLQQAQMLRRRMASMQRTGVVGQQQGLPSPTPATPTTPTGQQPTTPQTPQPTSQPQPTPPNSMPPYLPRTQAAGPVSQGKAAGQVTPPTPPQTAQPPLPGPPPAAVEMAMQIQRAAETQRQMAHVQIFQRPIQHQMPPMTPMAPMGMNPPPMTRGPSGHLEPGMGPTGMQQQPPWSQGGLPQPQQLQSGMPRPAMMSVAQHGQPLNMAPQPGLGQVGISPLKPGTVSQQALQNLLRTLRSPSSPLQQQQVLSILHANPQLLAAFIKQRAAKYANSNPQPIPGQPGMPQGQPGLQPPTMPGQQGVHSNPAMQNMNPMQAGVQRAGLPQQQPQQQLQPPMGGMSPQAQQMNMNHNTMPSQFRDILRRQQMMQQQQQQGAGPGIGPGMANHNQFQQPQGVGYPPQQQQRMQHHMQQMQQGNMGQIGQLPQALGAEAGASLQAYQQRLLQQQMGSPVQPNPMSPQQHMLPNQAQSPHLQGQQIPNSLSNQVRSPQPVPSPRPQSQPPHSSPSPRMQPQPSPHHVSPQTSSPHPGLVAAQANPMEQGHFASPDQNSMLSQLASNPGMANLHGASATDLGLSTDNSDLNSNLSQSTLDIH

Solubility (in words) (Solubility test; pH 2.0 and pH 3.0 buffers): high solubility
Pharmacokinetics (in words) [1]: excellent pharmacokinetics
BA [1]: 47.0%
Inhibitory effect on dopamine receptors (in words) (hDAT): did not show strong inhibitory activity
Inhibitory effect on serotonin receptors (in words) (hSERT): did not show strong inhibitory activity
Structure (SMILES): CN1CC(N(Cc2ccc(F)cn2)C(=O)CN2C(=O)N[C@]3(C[C@@H](F)c4cc(-c5cnn(C6COC6)c5)ccc43)C2=O)(C(F)(F)F)C1 [Example 24, 2-{(1′S,3′R)-3′-fluoro-5′-[1-(oxetan-3-yl)-1H-pyrazol-4-yl]-2,5-dioxo-2′,3′-dihydrospiro[imidazolidine-4,1′-inden]-1-yl}-N-[(5-fluoropyridin-2-yl)methyl]-N-[1-methyl-3-(trifluoromethyl)azetidin-3-yl]acetamide]
Antitumor effect, intravenous administration (in words) (G-401 xenograft): strong antitumor effects

BA [1]: 30.0%
Structure (SMILES): CN1CC(N(Cc2ccc(F)cc2)C(=O)CN2C(=O)N[C@]3(CCc4cc(-c5cnn(C)c5)ccc43)C2=O)(C(F)(F)F)C1 [Example 12, N-[(4-fluorophenyl)methyl]-2-[(1′S)-5′-(1-methyl-1H-pyrazol-4-yl)-2,5-dioxo-2′,3′-dihydrospiro[imidazolidine-4,1′-inden]-1-yl]-N-[1-methyl-3-(trifluoromethyl)azetidin-3-yl]acetamide]

Structure (SMILES): CN1CC(N(Cc2ccc(F)cn2)C(=O)CN2C(=O)N[C@]3(C[C@@H](F)c4cc(-c5cnn(CC6COC6)c5)ccc43)C2=O)(C(F)(F)F)C1 [Example 25, 2-[(1′S,3′R)-3′-fluoro-5′-{1-[(oxetan-3-yl)methyl]-1H-pyrazol-4-yl}-2,5-dioxo-2′,3′-dihydrospiro[imidazolidine-4,1′-inden]-1-yl]-N-[(5-fluoropyridin-2-yl)methyl]-N-[1-methyl-3-(trifluoromethyl)azetidin-3-yl]acetamide]
Inhibitory effect on dopamine receptors (in words) (hDAT): did not show strong inhibitory activity
Inhibitory effect on serotonin receptors (in words) (hSERT): did not show strong inhibitory activity

IC50 (recombinant p300): 0.6 nM
Structure (SMILES): O=C1N[C@]2(C[C@@H](F)c3cc(-c4cnn(C5CN(C6COC6)C5)c4)ccc32)C(=O)N1CC(=O)N(Cc1ccc(F)cn1)C1(C(F)(F)F)CC(F)(F)C1 [Example 9, N-[3,3-difluoro-1-(trifluoromethyl)cyclobutyl]-2-[(1′S,3′R)-3′-fluoro-5′-{1-[1-(oxetan-3-yl)azetidin-3-yl]-1H-pyrazol-4-yl}-2,5-dioxo-2′,3′-dihydrospiro[imidazolidine-4,1′-inden]-1-yl]-N-[(5-fluoropyridin-2-yl)methyl]acetamide]

Structure (SMILES): CNC(=O)Nc1ccc2c(c1)CC[C@@]21OC(=O)N(CC(=O)N2[C@@H](C)CC[C@H]2c2cc(F)c(F)c(F)c2)C1=O [Comparative Example 2, reference compound]
Solubility in pH 3.0 buffer (Solubility test; 10 mmol/L citrate buffer (pH 3.0), 5° C., overnight): 0.005 mg/mL
Solubility in pH 2.0 buffer (Solubility test; 10 mmol/L glycine buffer (pH 2.0), 5° C., overnight): 0.004 mg/mL
solubility (Solubility test; 10 mmol/L citrate buffer (pH 3.0), 5° C., overnight, read-out: Solubility in pH 3.0 buffer): 5 µg/mL (≈ 9.43 µM)
solubility (Solubility test; 10 mmol/L glycine buffer (pH 2.0), 5° C., overnight, read-out: Solubility in pH 2.0 buffer): 4 µg/mL (≈ 7.54 µM)
inhibition at 10 µM (hDAT; 10 μM, CHO-S/hDAT membrane preparation): 88%
Inhibitory effect on dopamine receptors (in words) (hDAT): strong inhibitory effect
inhibition at 10 µM (hSERT; 10 μM, HEK293/hSERT membrane preparation): 76%
Inhibitory effect on serotonin receptors (in words) (hSERT): strong inhibitory effect

IC50 (recombinant p300): 17.2 nM
Structure (SMILES): O=C1N[C@]2(CCc3cc(-c4cnn(C5CN(C6COC6)C5)c4)ccc32)C(=O)N1CC(=O)N(Cc1ccc(F)cn1)C1(C(F)(F)F)CC(F)(F)C1 [Example 8, N-[3,3-difluoro-1-(trifluoromethyl)cyclobutyl]-N-[(5-fluoropyridin-2-yl)methyl]-2-[(1′S)-5′-{-[1-(oxetan-3-yl)azetidin-3-yl]-1H-pyrazol-4-yl}-2,5-dioxo-2′,3′-dihydrospiro[imidazolidine-4,1′-inden]-1-yl]acetamide]

Structure (SMILES): CNC(=O)Cn1cc(-c2ccc3c(c2)[C@H](F)C[C@]32NC(=O)N(CC(=O)N(Cc3ccc(F)cc3)[C@@H](C)C(F)(F)F)C2=O)cn1 [Comparative Example 1, reference compound]
Antitumor effect, intravenous administration (in words) (G-401 xenograft): no antitumor effect

From US20250263415A1, “TERTIARY AMIDE DERIVATIVES SUBSTITUTED WITH 4-MEMBERED RING STRUCTURE” (Sumitomo Pharma Co., Ltd., priority 2024, published 2025)
